For 33 compounds, IC50 results are on record in US7211572B2 (Japan Tobacco Inc., priority 2003, dated 2007).

By pIC50 is commonly meant the IC50 on a negative log10 scale, so that one unit is a factor of ten.

Structures are written as SMILES. pIC50: −log10 of the molar value. Structures can show the parent of a compound that is named as a salt. Some results are limits rather than exact numbers.

The target of this test is T1, HIV integrase (Human immunodeficiency virus type 1 group M subtype B, UniProt P12497, F1332H).
T1 construct: HIV integrase full length gene; made in house; host or cells: Escherichia coli BL21(DE3), plasmid pET21a-INH
The experiment in a line: Determination of enzyme (HIV integrase) inhibitory activity. It counts as biochemical. Conditions: recombinant HIV integrase (F185H), strand transfer ELISA, absorbance at 450 nm. A digest of the protocol:
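Full-length integrase with F185H, expressed in E. coli and purified, was reacted for 60 min at 37 °C with compound and biotinylated donor DNA bound to streptavidin plates. Target DNA was added for 10 min, then anti-digoxigenin-peroxidase detection at A450; IC50 from % inhibition versus enzyme-free blank.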

On to `CN(C)C(=O)c1cn2c(c(O)c1=O)C(=O)N(Cc1cccc(Cl)c1)CC2` [Example 220, N,N-dimethyl-2-(3-chlorobenzyl)-9-hydroxy-1,8-dioxo-1,3,4,8-tetrahydro-2H-pyrido[1,2-a]pyrazine-7-carboxamide], for which the pIC50 was 7.00 to 8.00.

`O=C(O)CNC(=O)c1cn2ccn(Cc3cccc(Cl)c3)c(=O)c2c(O)c1=O` [Example 193, {[2-(3-chlorobenzyl)-9-hydroxy-1,8-dioxo-1,8-dihydro-2H-pyrido[1,2-a]pyrazine-7-carbonyl]amino}acetic acid]: the pIC50 is 7.00 to 8.00.

For `O=c1ccn2ccn(Cc3ccc(Cl)c(Cl)c3)c(=O)c2c1O` [Example 8, 2-(3,4-dichlorobenzyl)-9-hydroxy-2H-pyrido[1,2-a]pyrazine-1,8-dione], the pIC50 was > 8.00.

With `O=C(NCc1ccc(F)cc1)c1cn2ccn(Cc3cccc(Cl)c3)c(=O)c2c(O)c1=O` [Example 214, N-(4-fluorobenzyl)-2-(3-chlorobenzyl)-9-hydroxy-1,8-dioxo-1,8-dihydro-2H-pyrido[1,2-a]pyrazine-7-carboxamide], the pIC50 was > 8.00.

Take `CC(C)C(C(=O)Nc1cn2ccn(Cc3cccc(Cl)c3)c(=O)c2c(O)c1=O)C(C)C` [Example 284, N-[2-(3-chlorobenzyl)-9-hydroxy-1,8-dioxo-1,8-dihydro-2H-pyrido[1,2-a]pyrazin-7-yl] -2-isopropyl-3-methylbutyramide]: the pIC50 was 7.00 to 8.00.

For the compound `O=c1c(-c2ccccn2)cn2ccn(Cc3cccc(Cl)c3F)c(=O)c2c1O` [Example 364, 2-(3-chloro-2-fluorobenzyl)-9-hydroxy-7-(pyridin-2-yl)-2H-pyrido[1,2-a]pyrazine-1,8-dione hydrochloride], the pIC50 is > 8.00.

Turning to `O=c1ccn2ccn(Cc3ccc(F)c(Cl)c3)c(=O)c2c1O` [Example 90, 2-(3-chloro-4-fluorobenzyl)-9-hydroxy-2H-pyrido[1,2-a]pyrazine-1,8-dione hydrochloride], the pIC50 is > 8.00.

Regarding `CS(=O)(=O)c1ccc(CNC(=O)c2cn3c(c(O)c2=O)C(=O)N(Cc2ccc(F)cc2)CC3)cc1` [Example 421, N-(4-methanesulfonylbenzyl)-2-(4-fluorobenzyl)-9-hydroxy-1,8-dioxo-1,3,4,8-tetrahydro-2H-pyrido[1,2-a]pyrazine-7-carboxamide hydrochloride], the pIC50 is 7.00 to 8.00.

In the case of `CN(c1cn2ccn(Cc3cccc(Cl)c3)c(=O)c2c(O)c1=O)S(C)(=O)=O` [Example 211, N-[2-(3-chlorobenzyl)-9-hydroxy-1,8-dioxo-1,8-dihydro-2H-pyrido[1,2-a]pyrazin-7-yl]-N-methylmethanesulfonamide], the pIC50 is > 8.00.

On to `CS(=O)(=O)CCNC(=O)c1cn2ccn(Cc3cccc(Cl)c3)c(=O)c2c(O)c1=O` [Example 209, N-(2-methanesulfonylethyl)-2-(3-chlorobenzyl)-9-hydroxy-1,8-dioxo-1,8-dihydro-2H-pyrido[1,2-a]pyrazine-7-carboxamide], for which the pIC50 was 7.00 to 8.00.

In the case of `O=C1c2c(O)c(=O)c(-c3nccs3)cn2CCN1Cc1cccc(F)c1` [Example 308, 2-(3-fluorobenzyl)-9-hydroxy-7-(thiazol-2-yl)-3,4-dihydro-2H-pyrido[1,2-a]pyrazine-1,8-dione], the pIC50 was 7.00 to 8.00.

Turning to `O=C(Nc1cn2c(c(O)c1=O)C(=O)N(Cc1cccc(Cl)c1)CC2)c1ccncc1` [Example 346, N-[2-(3-chlorobenzyl)-9-hydroxy-1,8-dioxo-1,3,4,8-tetrahydro-2H-pyrido[1,2-a]pyrazin-7-yl]isonicotinamide hydrochloride], the pIC50 was 7.00 to 8.00.

On to `O=c1c(-c2ccc(Cl)cc2)cn2ccn(Cc3cccc(Cl)c3)c(=O)c2c1O` [Example 113, 2-(3-chlorobenzyl)-7-(4-chlorophenyl)-9-hydroxy-2H-pyrido[1,2-a]pyrazine-1,8-dione hydrochloride], for which the pIC50 was 7.00 to 8.00.

As to `O=c1ccn2ccn(CCCc3c(F)cccc3Cl)c(=O)c2c1O` [Example 95, 2-[3-(2-chloro-6-fluorophenyl)propyl]-9-hydroxy-2H-pyrido[1,2-a]pyrazine-1,8-dione hydrochloride], the pIC50 was 7.00 to 8.00.

Take `O=C(Nc1ccccc1)c1cn2ccn(Cc3cccc(Cl)c3)c(=O)c2c(O)c1=O` [Example 196, N-phenyl-2-(3-chlorobenzyl)-9-hydroxy-1,8-dioxo-1,8-dihydro-2H-pyrido[1,2-a]pyrazine-7-carboxamide hydrochloride]: the pIC50 was 7.00 to 8.00.

On to `Cc1cn(Cc2ccc(F)cc2)c(=O)c2c(O)c(=O)c(C(=O)C(C)(C)C)cn12` [Example 408, 7-(2,2-dimethylpropionyl)-2-(4-fluorobenzyl)-9-hydroxy-4-methyl-2H-pyrido[1,2-a]pyrazine-1,8-dione hydrochloride], for which the pIC50 is 7.00 to 8.00.

For the compound `CN(C)C(=O)c1cn2c(c(O)c1=O)C(=O)N(Cc1ccc(F)c(Cl)c1)CC2` [Example 228, N,N-dimethyl-2-(3-chloro-4-fluorobenzyl)-9-hydroxy-1,8-dioxo-1,3,4,8-tetrahydro-2H-pyrido[1,2-a]pyrazine-7-carboxamide], the pIC50 is 7.00 to 8.00.

For the compound `COc1ccc(Cl)cc1Cn1ccn2ccc(=O)c(O)c2c1=O` [Example 202, 2-(5-chloro-2-methoxybenzyl)-9-hydroxy-2H-pyrido[1,2-a]pyrazine-1,8-dione hydrochloride], the pIC50 is 7.00 to 8.00.

On to `O=C(c1cn2ccn(Cc3cccc(Cl)c3)c(=O)c2c(O)c1=O)N1CCOCC1` [Example 185, 2-(3-chlorobenzyl)-9-hydroxy-7-(morpholine-4-carbonyl)-2H-pyrido[1,2-a]pyrazine-1,8-dione], for which the pIC50 is 7.00 to 8.00.

Consider `O=c1c(-c2ncco2)cn2ccn(Cc3cccc(Cl)c3)c(=O)c2c1O` [Example 197, 2-(3-chlorobenzyl)-9-hydroxy-7-(oxazol-2-yl)-2H-pyrido[1,2-a]pyrazine-1,8-dione hydrochloride], for which the pIC50 was 7.00 to 8.00.

As for `O=C1c2c(O)c(=O)c(-c3cccnc3)cn2CCN1Cc1cccc(Cl)c1F` [Example 328, 2-(3-chloro-2-fluorobenzyl)-9-hydroxy-7-(pyridin-3-yl)-3,4-dihydro-2H-pyrido[1,2-a]pyrazine-1,8-dione hydrochloride], the pIC50 was 7.00 to 8.00.

Turning to `Cn1cc2c(c(O)c1=O)C(=O)N(Cc1ccc(Cl)c(Cl)c1)CC2` [Example 121, 2-(3,4-dichlorobenzyl)-8-hydroxy-6-methyl-2,3,4,6-tetrahydro-2,6-naphthyridine-1,7-dione], the negative-log IC50 (pIC50) was > 8.00.

With `O=C(NCc1ccco1)c1cn2c(c(O)c1=O)C(=O)N(Cc1ccc(F)cc1)CC2` [Example 411, N-(furan-2-ylmethyl)-2-(4-fluorobenzyl)-9-hydroxy-1,8-dioxo-1,3,4,8-tetrahydro-2H-pyrido[1,2-a]pyrazine-7-carboxamide hydrochloride], the negative-log IC50 (pIC50) was 7.00 to 8.00.

On to `O=C1c2c(O)c(=O)c(-c3nccs3)cn2CCN1Cc1ccccc1Cl` [Example 310, 2-(2-chlorobenzyl)-9-hydroxy-7-(thiazol-2-yl)-3,4-dihydro-2H-pyrido[1,2-a]pyrazine-1,8-dione], for which the pIC50 was 6.00 to 7.00.

As to `CSCCC1CN(Cc2ccc(Cl)c(Cl)c2)C(=O)c2c(O)c(=O)ccn21` (stereo not drawn) [Example 33, 2-(3,4-dichlorobenzyl)-9-hydroxy-4-(2-methylsulfanylethyl)-3,4-dihydro-2H-pyrido[1,2-a]pyrazine-1,8-dione], the pIC50 was 7.00 to 8.00.

`O=c1c(S(=O)(=O)c2ccccc2)cn2ccn(Cc3cccc(Cl)c3)c(=O)c2c1O` [Example 237, 7-benzenesulfonyl-2-(3-chlorobenzyl)-9-hydroxy-2H-pyrido [1,2-a]pyrazine-1,8-dione]: the negative-log IC50 (pIC50) is 7.00 to 8.00.

With `CC(C)(C)C(=O)c1cn2c(c(O)c1=O)C(=O)N(Cc1ccc(F)cc1)CC2(C)C` [Example 412, 7-(2,2-dimethylpropionyl)-2-(4-fluorobenzyl)-9-hydroxy-4,4-dimethyl-3,4-dihydro-2H-pyrido[1,2-a]pyrazine-1,8-dione hydrochloride], the pIC50 is 7.00 to 8.00.

Consider `O=C1c2c(O)c(=O)c(-c3ccccn3)cn2CCN1Cc1ccc(Cl)c(Cl)c1` [Example 373, 2-(3,4-dichlorobenzyl)-9-hydroxy-7-(pyridin-2-yl)-3,4-dihydro-2H-pyrido[1,2-a]pyrazine-1,8-dione trifluoroacetate], for which the negative-log IC50 (pIC50) is > 8.00.

`CCCCN(C)C(=O)c1cn2ccn(Cc3cccc(Cl)c3)c(=O)c2c(O)c1=O` [Example 182, N-butyl-N-methyl-2-(3-chlorobenzyl)-9-hydroxy-1,8-dioxo-1,8-dihydro-2H-pyrido[1,2-a]pyrazine-7-carboxamide]: the pIC50 is 7.00 to 8.00.

Turning to `O=c1c(-c2ccncn2)cn2ccn(Cc3cccc(Cl)c3)c(=O)c2c1O` [Example 391, 2-(3-chlorobenzyl)-9-hydroxy-7-(pyrimidin-4-yl)-2H-pyrido[1,2-a]pyrazine-1,8-dione hydrochloride], the pIC50 is 7.00 to 8.00.

Regarding `CC(C)(C)COC(=O)c1cn2ccn(Cc3cccc(Cl)c3)c(=O)c2c(O)c1=O` [Example 159, 2,2-dimethylpropyl 2-(3-chlorobenzyl)-9-hydroxy-1,8-dioxo-1,8-dihydro-2H-pyrido[1,2-a]pyrazine-7-carboxylate], the pIC50 is 7.00 to 8.00.

On to `CC(=O)CNC(=O)c1cn2ccn(Cc3cccc(Cl)c3)c(=O)c2c(O)c1=O` [Example 199, N-(2-oxopropyl)-2-(3-chlorobenzyl)-9-hydroxy-1,8-dioxo-1,8-dihydro-2H-pyrido[1,2-a]pyrazine-7-carboxamide], for which the pIC50 was 7.00 to 8.00.

On to `O=C(c1ccccc1)c1cc(=O)c(O)c2n1CCN(Cc1ccc(Cl)c(Cl)c1)C2=O` [Example 58, 6-benzoyl-2-(3,4-dichlorobenzyl)-9-hydroxy-3,4-dihydro-2H-pyrido[1,2-a]pyrazine-1,8-dione], for which the pIC50 is > 8.00.
